Measurements published in patent US20240050463A1, “THERAPEUTIC COMPOSITIONS AND METHODS FOR TREATING HEPATITIS B” (ARBUTUS BIOPHARMA CORPORATION, priority 2016, published 2024).
Where a name gives a salt, the structure may show the parent alone. Read-outs that look alike come from different tables or passages of the source.

Columns and labels:
[1] = test system: HBsAg secretion in HepG2.2.15 cells; assay: Inhibition of HBsAg in HepG2.2.15 cells (CLIA), checkerboard, MacSynergy II; assay type: cell-based, HBV (human hepatoblastoma HepG2 cells); settings: for Additive % Inhibition (HBsAg) versus negative control: Trial 3
Protocol: In vitro combination studies were conducted using the method of Prichard and Shipman (Prichard M N, and Shipman C Jr., Antiviral Research, 1990, 14(4-5), 181-205; and Prichard M N, et. al., MacSynergy II). The HepG2.2.15 cell culture system is a cell line derived from human hepatoblastoma HepG2 cells that have been stably transfected with the adw2− subtype HBV genome as previously explained in Sells et al. (Proc. Natl. Acad. Sci. U. S. A, 1987. Vol 84:1005-1009). HepG2.2.15 cells secrete Dane-like viral particles, produce HBV DNA, and also produce the viral proteins, hepatitis B e antigen (HBeAg) and hepatitis B surface antigen (HBsAg).
To test the compound combinations, HepG2.2.15 (30,000 cells/well) were plated in 96 well tissue-culture treated microtiter plates in RPMI+L-Glutamine medium supplemented with 1% penicillin-streptomycin, 20 μg/mL geneticin (G418), 10% fetal bovine serum, and incubated in a humidified incubator at 37° C. and 5% CO2 overnight. […] […] The microtiter cell plates were incubated for a duration of 6 days in a humidified incubator at 37° C. and 5% CO2.
Untreated positive control samples (0.5% DMSO in media) were included on each plate in multiple wells. Following a 6 day-incubation, media was removed from treated cells for use in an HBsAg chemiluminescence immunoassay (CLIA) (Autobio Diagnostics, Cat No. CL0310-2). An HBsAg standard curve was generated to verify that the levels of HBsAg quantification were within the detection limits of the assay. The remaining inhibitor-treated cells were assessed for cytotoxicity by determination of the intracellular adenosine triphosphate (ATP) using a Cell-Titer Glo reagent (Promega) as per manufacturers instructions and by microscopic analysis of the cells throughout the duration of inhibitor treatment. Cell viability was calculated as a percentage of the untreated positive control wells.
The plates were read using an EnVision multimode plate reader (PerkinElmer Model 2104). […] The RLU data from the single compound treated cells were analyzed using XL-Fit module in Microsoft Excel to determine EC50 values using a 4-parameter curve fitting algorithm.

[2] = test system: D type HBV in primary human hepatocytes (PHH); assay: HBV DNA in culture supernatants of HBV-infected primary human hepatocytes (qPCR), MacSynergy; assay type: cell-based; settings: for AVERAGE % INHIBITION: HBV DNA, COMPOUND 25 0.00 nM; for inhibition at 0.00012 µM / inhibition at 0.00037 µM / inhibition at 0.00333 µM / inhibition at 0.01 µM: Hepatitis B virus, Hepatocyte; for inhibition at 0.00012 µM: TDF 0.12 nM alone; for inhibition at 0.00037 µM: TDF 0.37 nM alone; for inhibition at 0.00333 µM: TDF 3.33 nM alone; for inhibition at 0.01 µM: TDF 10.00 nM alone
Protocol: (§1) The mouse liver perfusion was applied to isolate PHHs. The isolated hepatocytes were further purified by Percoll. The cells were resuspended with culture media and seeded into the 96-well plates (6×10^4 cell/well) or 48-well plates (1.2×10^5 cell/well). The PHHs were infected with a D type HBV one day post seeding (day 1).
(§2) On day 2, the test compounds were diluted and added into the cell culture plates. The culture media containing the compounds were refreshed every other day. The cell culture supernatants were collected on day 8 for the HBV DNA and antigen determinations.
(§3) The compounds were tested at 7 concentrations, 3-fold dilution, in triplicate.
(§4) Two compounds were tested at 5×5 matrix, in triplicate plates.
DNA in the culture supernatants harvested on days 8 were isolated with QIAamp 96 DNA Blood Kit (Qiagen-51161). For each sample, 100 μl of the culture supernatants was used to extract DNA. The DNA was eluted with 100 μl, 150 μl or 180 μl of AE. HBV DNA in the culture supernatants was quantified by qPCR. The combination effect was analyzed by the MacSynergy software. The primers are described below.

[3] = test system: HBV rcDNA in HepDE19 cells; assay: Inhibition of rcDNA in HepDE19 cells (bDNA assay), checkerboard, MacSynergy II; assay type: cell-based, HBV (human hepatoma cell line); set-up: key to ADDITIVE INHIBITION: % inhibition of rcDNA production; settings: Compound 3 0 μM
Protocol: In vitro combination studies were conducted using the method of Prichard and Shipman (Prichard M N, and Shipman C Jr., Antiviral Research, 1990, 14(4-5), 181-205; and Prichard M N, et. al., MacSynergy II). HepDE19 cell culture system is a HepG2 (human hepatocarcinoma) derived cell line that supports HBV DNA replication and cccDNA formation in a tetracycline (Tet)-regulated manner and produces HBV rcDNA and a detectable reporter molecule dependent on the production and maintenance of cccDNA (Guo et al 2007. J. Virol 81:12472-12484). HepDE19 (50,000 cells/well) were plated in 96 well collagen-coated tissue-culture treated microtiter plates in DMEM/F12 medium supplemented with 10% fetal bovine serum, 1% penicillin-streptomycin and 1 μg/ml tetracycline and incubated in a humidified incubator at 37° C. and 5% CO2 overnight. Next day, the cells were switched to fresh medium without tetracycline and incubated for 4 hrs at 37° C. and 5% CO2. […] The two inhibitors were tested both singly as well as in combinations in a checkerboard fashion such that each concentration of inhibitor A was combined with each concentration of inhibitor B to determine their combination effects on inhibition of rcDNA production. Following a 7 day-incubation of cells with compound combinations, the level of rcDNA present in the inhibitor-treated wells was measured using a Quantigene 2.0 bDNA assay kit (Affymetrix, Santa Clara, CA) with HBV specific custom probe set and manufacturers instructions. […] The RLU data from the single compound treated cells were analyzed using XL-Fit module in Microsoft Excel to determine EC50 values using a 4-parameter curve fitting algorithm. Concurrently, the effect of compounds on cell viability was assessed using replicate plates, plated at a density of 5,000 cells/well and incubated for 4 days, to determine the ATP content as a measure of cell viability using the cell-titer glo reagent (CTG; Promega Corporation, Madison, WI) as per manufacturer's instructions.
In vitro combination studies were conducted using the method of Prichard and Shipman (Prichard M N, Shipman C, Jr., Antiviral Res, 14, 181-205 (1990)). The HepDE19 cell line was developed as described in Guo et al. (Guo et al., J Virol, 81, 12472-12484 (2007)). It is a human hepatoma cell line stably transfected with the HBV genome, and which can express HBV pregenomic RNA and support HBV rcDNA (relaxed circular DNA) synthesis in a tetracycline-regulated manner. HepDE19 cells were plated in 96 well tissue-culture treated microtiter plates in DMEM/F12 medium supplemented with 10% fetal bovine serum+1% penicillin-streptomycin without tetracycline and incubated in a humidified incubator at 37° C. and 5% CO2 overnight. […] The two inhibitors were tested both singly as well as in combinations in a checkerboard fashion such that each concentration of inhibitor A was combined with each concentration of inhibitor B to determine their combination effects on inhibition of rcDNA production. Following a 48 hour-incubation, the level of rcDNA present in the inhibitor-treated wells was measured using a bDNA assay (Affymetrix) with HBV specific custom probe set and manufacturers instructions. […] Concurrently, the effect of inhibitor combinations on cell viability was assessed using replicate plates that were used to determine the ATP content as a measure of cell viability using the Cell-TiterGlo reagent (Promega) as per manufacturer's instructions.
In vitro combination studies were conducted using the method of Prichard and Shipman (1990) (Prichard M N, Shipman C, Jr. 1990. A three-dimensional model to analyze drug-drug interactions. Antiviral Res 14:181-205 AND Prichard M N. 1992. MacSynergy II, University of Michigan).

[4] = test system: HBsAg, D type HBV in primary human hepatocytes (PHH); assay: microbe, parasite or virus in culture; assay type: cell-based; settings: Hepatitis B virus, Hepatocyte; for inhibition at 0.00012 µM: TDF 0.12 nM alone; for inhibition at 0.00037 µM: TDF 0.37 nM alone
Protocol: as §1, §2, §3, §4
HBsAg/HBeAg in the culture supernatants harvested on days 8 were measured by the HBsAg/HBeAg ELISA kit (Autobio) according to the manual. The samples were diluted with PBS to get the signal in the range of the standard curve. The inhibition rates were calculated with the formula below. The combination effect was analyzed by the MacSynergy software.
% Inh. HBsAg=[1−HBsAg quantity of sample/HBV quantity of DMSO control]×100.

[5] = read-out: Additive inhibition, HBV DNA
[6] = read-out: Average % inhibition, HBV DNA
[7] = read-out: Additive inhibition, HBsAg
[8] = read-out: Average % inhibition, HBsAg

Compound: COCCCOc1cc2c(cc1OC)-c1cc(=O)c(C(=O)O)cn1[C@H](C(C)C)C2 [Compound 5]
- Additive % Inhibition (HBsAg) versus negative control ([1]; Compound 5 0.0001 μM alone): 69.99%
- Additive % Inhibition (HBsAg) versus negative control ([1]; Compound 5 0.000316 μM alone): 82.39%
- Additive % Inhibition (HBsAg) versus negative control ([1]; Compound 5 0.001 μM alone): 89.01%
- Additive % Inhibition (HBsAg) versus negative control ([1]; Compound 5 0.00316 μM alone): 90.26%
- Additive % Inhibition (HBsAg) versus negative control ([1]; Compound 5 0.1 μM alone): 86.26%
- Additive % Inhibition (HBsAg) versus negative control ([1]; Compound 5 1.0E−05 μM alone): 46.36%
- Additive % Inhibition (HBsAg) versus negative control ([1]; Compound 5 1.00E−06 μM alone): 22.68%
- Additive % Inhibition (HBsAg) versus negative control ([1]; Compound 5 3.16E−06 μM alone): 34.18%
- Additive % Inhibition (HBsAg) versus negative control ([1]; Compound 5 3.17E−05 μM alone): 56.34%
- EC50 ([1]; Hepatitis B virus, HepG2.2.15, Trial 2, HBsAg by CLIA, read-out: Compound 5 EC50): 5 nM

Compound: O=C(Nc1ccc(F)c(F)c1)c1cc(S(=O)(=O)NC2CCCC2)ccc1F [Compound 22]
- AVERAGE % INHIBITION ([2]; COMPOUND 22 61.73 nM): −11.75%
- AVERAGE % INHIBITION ([2]; COMPOUND 22 185.19 nM): −9.12%
- AVERAGE % INHIBITION ([2]; COMPOUND 22 555.56 nM): −12.7%
- AVERAGE % INHIBITION ([2]; COMPOUND 22 1666.67 nM): 17.94%
- AVERAGE % INHIBITION ([2]; COMPOUND 22 5000.00 nM): 63.06%

Compound: CCOC(=O)C1=C(CN2CCOCC2)NC(c2nccs2)=NC1c1ccc(F)cc1Br (stereo not shown) [GLS4]
- ADDITIVE INHIBITION ([3]; GLS-4 0.007813 μM): −1.17
- ADDITIVE INHIBITION ([3]; GLS-4 0.01563 μM): −5.82
- ADDITIVE INHIBITION ([3]; GLS-4 0.03125 μM): 7.03
- ADDITIVE INHIBITION ([3]; GLS-4 0.0625 μM): 38.95
- ADDITIVE INHIBITION ([3]; GLS-4 0.125 μM): 77.82
- ADDITIVE INHIBITION ([3]; GLS-4 0.25 μM): 94.65
- ADDITIVE INHIBITION ([3]; GLS-4 0.5 μM): 97.48
- ADDITIVE INHIBITION ([3]; GLS-4 1 μM): 98.51
- ADDITIVE INHIBITION ([3]; GLS-4 2 μM): 98.22

Compound: CC(C)OC(=O)OCOP(=O)(CO[C@H](C)Cn1cnc2c(N)ncnc21)OCOC(=O)OC(C)C [TDF, tenofovir disoproxil fumarate]
- inhibition at 0.00012 µM [2, 5]: -1.16%
- inhibition at 0.00012 µM [2, 6]: -1.16%
- inhibition at 0.00037 µM [2, 5]: -6.24%
- inhibition at 0.00037 µM [2, 6]: -6.24%
- inhibition at 0.00333 µM [2, 5]: 3.15%
- inhibition at 0.00333 µM [2, 6]: 3.15%
- inhibition at 0.01 µM [2, 5]: -15.4%
- inhibition at 0.01 µM [2, 6]: -15.4%
- inhibition at 0.00012 µM [4, 7]: -3.31%
- inhibition at 0.00012 µM [4, 8]: -3.31%
- inhibition at 0.00037 µM [4, 7]: -3.32%
- inhibition at 0.00037 µM [4, 8]: -3.32%
- inhibition at 0.00333 µM ([4]; read-out: Additive inhibition, HBsAg, TDF 3.33 nM alone): -1.28%
- inhibition at 0.01 µM ([4]; read-out: Additive inhibition, HBsAg, TDF 10.00 nM alone): -6.65%
- inhibition at 0.00333 µM ([4]; read-out: Average % inhibition, HBsAg, TDF 3.33 nM alone): -1.28%
- inhibition at 0.01 µM ([4]; read-out: Average % inhibition, HBsAg, TDF 10.00 nM alone): -6.65%
